≈ marks a conversion by molar mass, not a printed value. Bounds are passed on as bounds.

Here are results for 1 molecule from publication PMC7397269, “Synthesis and Evaluation of New Coumarin Derivatives as Antioxidant, Antimicrobial, and Anti-Inflammatory Agents” (Molecules, 2020).

Data set [1] in a line: DPPH antioxidant assay (radical scavenging). Particulars: mean ± SD (n = 3). It counts as biochemical. A digest of the protocol:
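Compounds, starting at 200 μg/mL, were mixed with 0.2 mM methanolic DPPH and incubated 30 min in the dark at 25 °C; absorbance was read at 515 nm. % inhibition is background-corrected against DPPH-only control, with IC50 from curve fit. Runs were triplicate (mean ± SD), with ascorbic acid as positive control.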

Data set [2] has as its system Staphylococcus aureus ATCC 29213. Put plainly: Agar well diffusion, S. aureus. It counts as cell-based. The following applies: ATCC29213, 100 μL of 10 mg/mL in DMSO, read-out: diameter of inhibition zone, SA. Put shortly:
(§1)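 Values are mean inhibition zone diameters (mm) from triplicate plates incubated 24 h at 37 °C. Wells 10 mm wide held 100 μL of compound at 10 mg/mL in DMSO.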
A general note: In agar diffusion tests the substance spreads into inoculated agar from a disc or well.

For data set [3], the system named is Bacillus subtilis ATCC 6633. Kind of data set: Agar well diffusion, B. subtilis. Particulars: ATCC6633, 100 μL of 10 mg/mL in DMSO, read-out: diameter of inhibition zone, BS. It counts as cell-based. Put shortly: as §1
Data set [4] concerns Bacillus megaterium ATCC 9885. Kind of data set: Agar well diffusion, B. megaterium. It counts as cell-based. The following applies: Priestia megaterium, ATCC9885, 100 μL of 10 mg/mL in DMSO, read-out: diameter of inhibition zone, BM. Put shortly:
as §1

For data set [5], the system named is Escherichia coli ATCC 2592. Kind of data set: Agar well diffusion, E. coli. The format is cell-based. Particulars: ATCC2592, 100 μL of 10 mg/mL in DMSO, read-out: diameter of inhibition zone, EC. Put shortly: as §1
Data set [6] concerns Pseudomonas aeruginosa ATCC 27,953. Kind of data set: Agar well diffusion, P. aeruginosa. It counts as cell-based. The following applies: ATCC27, 100 μL of 10 mg/mL in DMSO, read-out: diameter of inhibition zone, PA. A digest of the protocol: as §1
The subject of data set [7] is Saccharomyces cerevisiae local isolate. Kind of data set: Agar well diffusion, S. cerevisiae. The following applies: well diffusion, 100 μL of 10 mg/mL in DMSO, S. cerevisiae, read-out: diameter of inhibition zone, SC. It counts as cell-based. A digest of the protocol:
as §1

For data set [8], the system named is Candida albicans NRRL Y-477. Kind of data set: Agar well diffusion, C. albicans. Particulars: NRRLY477, 100 μL of 10 mg/mL in DMSO, read-out: diameter of inhibition zone, CA. It counts as cell-based. A digest of the protocol:
as §1

The next data set deals with trypsin. Put plainly: Proteinase-inhibitory activity. The format is biochemical. The following applies: 250 µg/mL; mean ± SD (n = 3). Put shortly: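 Trypsin (0.06 mg per 2 mL, 20 mM Tris-HCl pH 7.4) was preincubated 5 min with test sample at 250 µg/mL, then 0.8% casein was added for 20 min. Perchloric acid stopped the reaction and supernatant absorbance was read at 280 nm. % inhibition is relative to the no-sample control, in triplicate.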

Another data set has as its target T1, COX-1 (Homo sapiens, UniProt P23219).
T1 construct: purchased Cayman Chemical 701070
Put plainly: COX-1 inhibition, Cayman assay kit. The following applies: mean of two determinations. The format is biochemical.

Another data set deals with T2, COX-2 (Homo sapiens, UniProt P35354).
T2 construct: purchased Cayman Chemical 701080
T2 sequence (P35354 18-604): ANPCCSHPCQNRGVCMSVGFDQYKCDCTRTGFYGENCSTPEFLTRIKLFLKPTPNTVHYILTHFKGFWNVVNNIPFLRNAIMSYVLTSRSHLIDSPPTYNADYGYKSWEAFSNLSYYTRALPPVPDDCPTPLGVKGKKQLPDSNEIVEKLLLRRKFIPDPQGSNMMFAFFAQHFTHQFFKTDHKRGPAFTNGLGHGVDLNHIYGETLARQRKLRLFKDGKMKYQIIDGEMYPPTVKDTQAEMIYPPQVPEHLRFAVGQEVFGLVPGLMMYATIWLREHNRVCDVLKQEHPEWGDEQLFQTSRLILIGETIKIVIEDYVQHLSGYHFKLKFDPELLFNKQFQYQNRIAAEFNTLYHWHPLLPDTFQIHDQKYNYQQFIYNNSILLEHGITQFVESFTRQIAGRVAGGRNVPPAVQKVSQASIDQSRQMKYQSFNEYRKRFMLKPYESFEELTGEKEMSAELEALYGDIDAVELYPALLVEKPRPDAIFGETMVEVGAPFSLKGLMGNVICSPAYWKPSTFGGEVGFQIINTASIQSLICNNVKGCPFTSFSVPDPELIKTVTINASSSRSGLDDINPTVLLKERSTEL
Kind of data set: COX-2 inhibition, Cayman assay kit. It counts as biochemical.

In the next data set the test system is tested microorganisms. Kind of data set: Agar well diffusion, summary over the tested microorganisms. Particulars: all tested microorganisms. The format is cell-based. From the text: The new molecules were individually tested for their antimicrobial activity in vitro against standard bacteria strains from the American Type Culture Collection (ATCC), namely, Staphylococcus aureus ATCC 29213, Bacillus subtilis ATCC 6633, Bacillus megaterium ATCC 9885 (Gram-positive), Escherichia coli ATCC 2592, and Pseudomonas aeruginosa ATCC 27,953 (Gram-negative). The compounds were also microbiologically tested against locally isolated Saccharomyces cerevisiae (yeast) and the standard Agricultural Research Service Culture Collection (NRRL) strain of the yeast-like pathogenic fungus Candida albicans NRRL Y-477. Primary screening was conducted using the agar well diffusion method using nutrient agar (NA) medium and Sabourand dextrose agar (SDA) medium for the tested pathological bacteria and yeast, respectively. […].
Antimicrobial tests were conducted via the agar well diffusion method using 100 μL of suspension containing 1 × 10^8 CFU/mL pathological tested bacteria and 1 × 10^6 CFU/mL yeast spread on NA and SDA, respectively. […] After incubation, antimicrobial activity was evaluated by measuring the zone of inhibition against the test organisms and compared with that of the standard. Antimicrobial activities were expressed as the diameter of the inhibition zone (IZ) in mm. The experiment was carried out in triplicate and the average zone of inhibition was calculated.

T1 sequence (P23219 24-599): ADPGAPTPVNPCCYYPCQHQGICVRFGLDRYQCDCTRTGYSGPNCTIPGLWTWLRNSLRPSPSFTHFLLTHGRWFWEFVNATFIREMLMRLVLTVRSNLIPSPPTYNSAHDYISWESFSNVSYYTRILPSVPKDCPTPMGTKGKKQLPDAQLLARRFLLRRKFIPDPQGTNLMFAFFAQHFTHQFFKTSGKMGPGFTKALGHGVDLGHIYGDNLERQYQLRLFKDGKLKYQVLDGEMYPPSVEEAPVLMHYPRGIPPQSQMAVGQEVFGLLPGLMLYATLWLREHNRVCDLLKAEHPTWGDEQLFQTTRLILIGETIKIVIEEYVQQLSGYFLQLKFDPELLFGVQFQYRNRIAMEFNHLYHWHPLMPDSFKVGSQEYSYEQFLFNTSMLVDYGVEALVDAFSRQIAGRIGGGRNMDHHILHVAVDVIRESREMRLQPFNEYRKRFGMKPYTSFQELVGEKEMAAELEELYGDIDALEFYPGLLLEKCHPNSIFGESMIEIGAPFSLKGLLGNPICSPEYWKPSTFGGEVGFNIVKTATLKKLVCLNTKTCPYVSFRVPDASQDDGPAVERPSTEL

Usually IC50 stands for the concentration needed to halve the response being measured. Read a low IC50 as greater potency in that assay. As usually defined, the zone of inhibition is the size of the clear area around the sample on an inoculated plate. Usually melting point stands for the temperature, or range, at which the solid turns liquid. Regarding `Cc1ccc2oc(=O)c(S(=O)(=O)Nc3ccc(S(N)(=O)=O)cc3)c(O)c2c1` [7b, 4-Hydroxy-6-methyl-2-oxo-N-(4-sulfamoylphenyl)-2H-chromene-3-sulfonamide], the melting point was in the range of 241 to 243 °C. The molecule further yielded an IC50 in [1] of 61.78 ± 2.719 µg/mL (≈ 151 µM). Also, in data set [2], the zone of inhibition at 10000 µg/mL is below 15 mm. Moreover, the zone of inhibition at 10000 µg/mL in data set [3] was below 15 mm. The zone of inhibition at 10000 µg/mL in data set [4] is below 15 mm. The zone of inhibition at 10000 µg/mL in data set [5] is below 15 mm. In [6], the zone of inhibition at 10000 µg/mL was below 15 mm. In addition, the zone of inhibition at 10000 µg/mL in data set [7] was below 15 mm. Also, in data set [8], the zone of inhibition at 10000 µg/mL is below 15 mm. Also, the “% Inhibition (proteinase)” value in the data set with trypsin amounted to 5.93 ± 2.11%. Further, the concentration for half-maximal inhibition (IC50) at COX-1 came out at 47.6 µM. Besides, the midpoint of inhibition on COX-2 (mean of two determinations), the IC50, lay at 8.24 µM. Also, the “SI, selectivity index (COX-1/COX-2)” value at COX-2 (ratio of COX-1/COX-2 IC50) was determined as 5.78. For the same molecule, the “IZ against the tested microorganisms” value in the data set on tested microorganisms is below 15 mm.
